Structures are written as SMILES. Some results are limits rather than exact numbers.

Glycogen synthase kinase-3 beta, sequence (P49841 whole entry): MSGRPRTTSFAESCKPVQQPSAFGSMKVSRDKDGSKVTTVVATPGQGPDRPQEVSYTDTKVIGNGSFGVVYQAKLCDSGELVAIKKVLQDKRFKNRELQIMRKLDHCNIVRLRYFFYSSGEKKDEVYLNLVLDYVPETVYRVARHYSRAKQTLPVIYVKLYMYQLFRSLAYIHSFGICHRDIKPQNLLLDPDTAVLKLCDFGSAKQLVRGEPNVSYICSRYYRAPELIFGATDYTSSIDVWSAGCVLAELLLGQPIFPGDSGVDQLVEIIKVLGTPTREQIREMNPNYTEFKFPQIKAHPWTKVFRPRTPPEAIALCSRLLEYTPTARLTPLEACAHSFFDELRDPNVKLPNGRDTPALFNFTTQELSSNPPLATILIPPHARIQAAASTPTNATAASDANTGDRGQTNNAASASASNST

The assay concerns the target Glycogen synthase kinase-3 beta (Homo sapiens, UniProt P49841). The assay can be described thus: GSK3beta kinase inhibitor potency, dose response, biochemical, luminescence, cell-free homogeneous, retest (AID 434954).
What is called EC50 is the concentration needed to bring the measured effect to its halfway point. Low values mean a more potent agent, high ones a less potent agent. As to `O=C(O)C1C2C=CC(O2)C1C(=O)NCc1ccc(Cl)cc1` (stereo not drawn) [3-{[(4-chlorobenzyl)amino]carbonyl}-7-oxabicyclo[2.2.1]hept-5-ene-2-carboxylic acid], the EC50 was > 300 µM.

For `CN(C)/N=N/c1ccc(S(N)(=O)=O)cc1` [SMR000272943], the EC50 is > 300 µM.

In the case of `C=CCOC(=O)C1C(C)=Nc2ncnn2C1c1cccs1` (stereo not drawn), the EC50 is > 300 µM.

With `O=[N+]([O-])c1ccc2ccn(C3OCC(O)C(O)C3O)c2c1` (stereo not drawn) [SMR000283162], the EC50 is > 300 µM.

With `CCCCn1nc(NC(=O)c2cccs2)c2cc3ccccc3nc21` [MLS000081455], the EC50 was > 300 µM.

Take `CC1(C)CC(CCNC(=O)CCl)(c2ccccc2)CCO1` (stereo not drawn) [MLS000779552]: the EC50 is > 300 µM.

For the molecule `CC(C)=CCc1c(O)cc2c(=O)c3ccc(O)cc3oc2c1O` [SMR000470963], the EC50 was > 300 µM.

`O=C(Cc1ccc(Cl)cc1)Nc1ncc([N+](=O)[O-])s1` [2-(4-chlorophenyl)-N-(5-nitro-1,3-thiazol-2-yl)ethanamide] had an EC50 of 30.4 µM.

Take `Cc1c(Br)c([N+](=O)[O-])nn1CCCC(=O)N1CCN(c2ccccc2)CC1` [SMR000206162]: the EC50 was > 300 µM.

Take `Cc1ccc(CNc2nc(N)c([N+](=O)[O-])c(NCCO)n2)cc1`: the EC50 worked out at 117 µM.

Take `COc1c(CC=C(C)C)cc([C@@H]2CC(=O)c3c(O)cc(O)cc3O2)cc1CC=C(C)C` [abyssinone-V-4'-O-methyl ether]: the EC50 is > 300 µM.

Take `CCOc1ccc(C(=O)NCC(=O)OCc2c(C)noc2C)cc1` [(3,5-dimethyl-1,2-oxazol-4-yl)methyl 2-[(4-ethoxybenzoyl)amino]acetate]: the EC50 was > 300 µM.

As to `Cc1[nH]c2ccccc2c1Cc1nnc(SCC(N)=O)o1` [2-[[5-[(2-methyl-1H-indol-3-yl)methyl]-1,3,4-oxadiazol-2-yl]sulfanyl]acetamide], the EC50 was > 300 µM.

With `Cn1c(SCC(=O)Nc2ccc(Cl)cn2)nnc1C1CC1` [N-(5-chloro-2-pyridinyl)-2-[(5-cyclopropyl-4-methyl-1,2,4-triazol-3-yl)thio]acetamide], the EC50 amounted to 23.7 µM.

For the molecule `COc1ccc(OCCCC(=O)NCc2ccco2)cc1` [N-Furan-2-ylmethyl-4-(4-methoxy-phenoxy)-butyramide], the EC50 is > 300 µM.

As to `CS(=O)(=O)N(CCc1ccccc1)CC(=O)N1CCN(c2ccccc2F)CC1`, the EC50 is > 300 µM.

As to `COc1ccc(-c2nn(-c3ccccc3)cc2C#N)cc1` [3-(4-methoxyphenyl)-1-phenyl-4-pyrazolecarbonitrile], the EC50 was > 300 µM.

On to `COc1cc(C=Nn2c(C3CCCCC3)n[nH]c2=S)cc(Br)c1O` [MLS001164684], for which the EC50 was 4.17 µM.

In the case of `CCOC(=O)c1c(-c2ccccc2)oc2ccc(OCC(=O)NNC(=O)CCCC(=O)O)cc12`, the EC50 is > 300 µM.

`O=C(NC1CCC(C(=O)O)CC1)OCc1ccccc1` (stereo not drawn) [4-(phenylmethoxycarbonylamino)cyclohexane-1-carboxylic acid]: the EC50 is > 300 µM.

For the molecule `COc1cc(CN=Nc2ccc([N+](=O)[O-])cc2)ccc1OCC(=O)Nc1ccc(C)c(C)c1` [MLS000537060], the EC50 was > 300 µM.

As for `COc1cccc(C(=O)NNC(=O)c2ccccc2)c1`, the EC50 was > 300 µM.

Take `CC(=O)c1cccc(Nc2nc(-c3ccccc3)nc3ccccc23)c1` [SMR000516691]: the EC50 is > 300 µM.

For `CSc1nnc2ccc(-c3cccs3)nn12` [SMR000324231], the EC50 is > 300 µM.

On to `OC[C@H]1O[C@@H](n2cnc3c(O)ncnc32)[C@H](O)[C@@H]1O` [Atorel], for which the EC50 is > 300 µM.

Regarding `CCOC(=O)/C(C#N)=C/c1cn(CCC(=O)O)nc1-c1ccccc1` [3-[4-[(E)-2-cyano-3-ethoxy-3-oxoprop-1-enyl]-3-phenyl-1-pyrazolyl]propanoic acid], the EC50 is > 300 µM.

Take `O=c1oc(-c2cccs2)nc2sc3c(c12)CCC3` [MLS000107331]: the EC50 is > 300 µM.

Regarding `O=C1CC(O)(C(F)(F)F)Oc2c1ccc1ccccc21` (stereo not drawn) [2-oxidanyl-2-(trifluoromethyl)-3H-benzo[h]chromen-4-one], the EC50 is > 300 µM.

With `O=C(Nc1cccc(NC(=O)c2ccc3c(c2)OCO3)c1)c1ccccc1` [MLS000706176], the EC50 is > 300 µM.

Regarding `CCc1ccccc1NC(=O)CSc1nnc(-c2ccncc2)o1` [SMR000324383], the EC50 is > 300 µM.

Take `CCCN(C(=O)CCNC(=O)Cn1cnc2ccccc2c1=O)c1cccc(Cl)c1` [N-(3-chlorophenyl)-3-[[2-(4-oxoquinazolin-3-yl)acetyl]amino]-N-propylpropanamide]: the EC50 is > 300 µM.

Consider `O=C1N=C(Nc2ccccc2)SC1=Cc1cccnc1` [MLS000768418], for which the EC50 was > 300 µM.

Turning to `CCn1c(SCC(=O)Nc2ccccc2)nnc1C1CCCCC1`, the EC50 is > 300 µM.

`CN(c1ncnc(N)c1[N+](=O)[O-])C1CCCCC1` registered an EC50 of 2.57 µM.

The molecule `CCCN(CCC)Cc1c(C(=O)NN=Cc2ccsc2)nnn1-c1nonc1N` [SMR000620321] showed an EC50 of 4.13 µM.

Turning to `COc1cccc2cc(C(=O)CS(=O)(=O)c3ccc(C)cc3)c(=O)oc12` [8-methoxy-3-[2-(4-methylphenyl)sulfonylethanoyl]chromen-2-one], the EC50 was > 300 µM.

For the molecule `Fc1ccccc1CSc1nnc(-c2ccccc2)o1` [MLS000063511], the EC50 was > 300 µM.

As for `CCN1C(=O)N[C@@H](c2ccccc2)[C@@H](C(=O)OC)[C@H]1C` [CMLD004197], the EC50 was > 300 µM.

As for `Nc1ncnc(NC2CCS(=O)(=O)C2)c1[N+](=O)[O-]` (stereo not drawn) [4-N-(1,1-dioxothiolan-3-yl)-5-nitropyrimidine-4,6-diamine], the EC50 was > 300 µM.

Consider `COc1cccc(CN=Nc2cc(Cl)nc(C)n2)c1O` [SMR000274053], for which the EC50 was > 300 µM.

`COc1ccc(Nc2nc(N)nc(CSc3nncn3C)n2)cc1` [N-(4-methoxyphenyl)-6-{[(4-methyl-4H-1,2,4-triazol-3-yl)thio]methyl}-1,3,5-triazine-2,4-diamine] yielded an EC50 of 41.3 µM. This counts as double-digit micromolar.

As to `Cc1cccc(C(=O)NCC(c2ccco2)N2CCc3ccccc32)c1` (stereo not drawn) [MLS001237444], the EC50 was > 300 µM.

With `COCCn1c(SCC(=O)Nc2ccc(Cl)cn2)nc2ccccc21` [N-(5-chloropyridin-2-yl)-2-[1-(2-methoxyethyl)benzimidazol-2-yl]sulfanylacetamide], the EC50 stood at 3.82 µM. In other words, the single-digit micromolar range.

In the case of `COc1cc(/C=C2/C(=O)NN(c3cccc(Cl)c3)C2=O)cc(Br)c1O` [MLS001210835], the 50% effective concentration (EC50) is 42.6 µM. Compared with the last molecule, the EC50 is about 11-fold higher.

With `COC(=O)c1nnn(-c2nonc2N)c1CSc1nc2ccccc2s1` [methyl 1-(4-amino-1,2,5-oxadiazol-3-yl)-5-(1,3-benzothiazol-2-ylsulfanylmethyl)triazole-4-carboxylate], the EC50 was > 300 µM.

Take `Cc1ccccc1-c1nnc(SCCOc2ccc3c(C)cc(=O)oc3c2)o1`: the EC50 is > 300 µM.

As for `Cn1nc(-c2ccc(Cl)cc2)nc2c(=O)n(C)c(=O)nc1-2` [3-(4-Chloro-phenyl)-1,6-dimethyl-1H-pyrimido[5,4-e][1,2,4]triazine-5,7-dione], it took 24 µM to reach a half-maximal effect (EC50).

Take `CCN(c1ccccc1)S(=O)(=O)c1cc(NC(=O)Nc2ccccc2C#N)ccc1Cl` [MLS000395038]: the EC50 is > 300 µM.

For the molecule `Cc1occc1C(=O)N1CCN(C(=O)C2CCCO2)CC1` (stereo not drawn) [1-(2-methyl-3-furoyl)-4-(tetrahydro-2-furanylcarbonyl)piperazine], the EC50 is > 300 µM.

As for `Cc1ccc(Nc2nc(NCCCN3CCOCC3)nc(N)c2[N+](=O)[O-])cc1C` [SMR000219808], the EC50 is > 300 µM.

For the molecule `COc1cc(C(=O)N2CCN(c3ccccn3)CC2)cc(OC)c1OC` [SMR000518691], the EC50 came to 45.9 µM.

Turning to `O=C(COc1ccccc1[N+](=O)[O-])NN=Cc1ccncc1`, the half-maximal effective concentration (EC50) was > 300 µM.

With `CCCc1nc2c([nH]1)c(=O)n(C)c(=O)n2C`, the EC50 was > 300 µM.

For `COc1cc(OC)c(OC)cc1CNCC1COc2ccccc2O1` (stereo not drawn) [SMR000516658], the EC50 was > 300 µM.

As for `Cc1ccc2c(c1)=C(NN1C(=O)c3ccccc3C1=O)C(=O)N=2` [MLS000573597], the EC50 is > 300 µM.

`CCOC(=O)C=C(C)[N+]1=N[C-](c2ccc(OC)cc2)CC1c1cccc([N+](=O)[O-])c1` (stereo not drawn) [(Z)-3-[5-(4-methoxyphenyl)-3-(3-nitrophenyl)-3,4-dihydropyrazol-2-yl]-2-butenoic acid ethyl ester]: the EC50 was > 300 µM.

For `N=C(NO)c1ccc(Oc2ccccc2Cl)c([N+](=O)[O-])c1` [4-(2-chlorophenoxy)-N'-hydroxy-3-nitrobenzenecarboximidamide], the EC50 is > 300 µM.

In turn, `CC(C)=CCc1cc([C@@H]2CC(=O)c3ccc(O)c(CC=C(C)C)c3O2)ccc1O` [MLS000697605] returned an EC50 of 58.4 µM.

Consider `Nc1nonc1-n1nnc(C(=O)NN=Cc2ccccc2F)c1-c1cccs1`, for which the EC50 came out at 14.4 µM.

Take `CCn1nc(NC(=O)c2cccs2)c2cc3ccccc3nc21` [MLS000674383]: the EC50 is > 300 µM.

On to `O=C(COC(=O)C1CCN(/C=C/C(=O)C(F)(F)F)CC1)Nc1ccccc1` [MLS000390182], for which the EC50 is > 300 µM.

For the molecule `COc1ccc(C(O)c2coc3ccc(O)c(CN(C)C)c23)cc1` (stereo not drawn) [SMR000070308], the EC50 is > 300 µM.

Take `COc1cccc(Nc2nc(-c3ccccc3)nc3ccccc23)c1`: the EC50 was > 300 µM.

Take `COc1cccc(/C=C2/Sc3ccc(C(=O)NCCN4CCCC4)cc3NC2=O)c1` [(2E)-2-[(3-methoxyphenyl)methylidene]-3-oxo-N-(2-pyrrolidin-1-ylethyl)-4H-1,4-benzothiazine-6-carboxamide]: the response was half-maximal at 2.81 µM (EC50).

On to `CN(C)C=NC(=O)C(C#N)C1=Nc2ccccc2CC1` (stereo not drawn), for which the EC50 was 20.1 µM.

As for `COc1ccccc1-c1cc2ccccc2[nH]1` [2-(1H-indol-2-yl)phenyl methyl ether], the EC50 was > 300 µM.

Take `Cc1ccc(C(OCCN(C)C)c2cccc(C(F)(F)F)c2)cc1` (stereo not drawn) [(Z)-but-2-enedioic acid;N,N-dimethyl-2-[(4-methylphenyl)-[3-(trifluoromethyl)phenyl]methoxy]ethanamine]: the EC50 was > 300 µM.

The molecule `CC1=C(C#N)C(=O)NC(=O)C1=NNc1ccc(S(N)(=O)=O)cc1` [4-[(2Z)-2-(5-cyano-4-methyl-2,6-dioxopyridin-3-ylidene)hydrazinyl]benzenesulfonamide] returned an EC50 of 0.917 µM.

(Values after BindingDB's records for doi:10.7270/Q2TX3CTT (Broad Institute, 2010).)
